The text below walks through data of paper PMC10946806, “Development of Bifunctional, Raman Active Diyne‐Girder Stapled α‐Helical Peptides” (Chemistry (Weinheim an Der Bergstrasse, Germany), 2023).

The nature of data set [1]: Circular dichroism (CD) spectroscopy, % helicity. The data set is classed as physicochemical. The settings on record: for percentage helicity at 222 nm from mean residue ellipticity: peptide 50 μM in PBS pH 7.4, room temperature, MRE at 222 nm converted by Equation S2; for percentage helicity (in words): peptide 50 μM in PBS pH 7.4, 222 nm. The method, then:
Circular dichroism (CD): CD spectra were obtained using a JASCO J-810 CD spectrometer. […] Percentage helicities can be calculated for α-helical peptides. […] […] Equation S1. MRE calculation. […] To 100 μL of peptide solution was added 100 11

The nature of data set [2]: on-resin Glaser oxidative coupling of two terminal alkynes (i,i+7 side chains) to 1,3-diyne; CuCl 5 eq, 4,4'-bis(hydroxymethyl)-2,2'-bipyridine 7.5 eq, DIPEA 20 eq, microwave. The following applies: the molecule shown is the open-chain precursor, DMF, 10.0 mM, 60.0 °C, 3.0 h.

On to “FTU-Ahx-AKR7YAR(Nle)GRR7LKEIAK-NH2 (sidechain bridge or staple) [compound 30, diyne-girder stapled T-STAR peptide, C14 bridge, RR]”, for which the “percentage helicity at 222 nm from mean residue ellipticity” value in data set [1] worked out at 40%.
Still for that read-out and setting: the same measure for “FTU-Ahx-AKR8YAR(Nle)GRR8LKEIAK-NH2 (sidechain bridge or staple) [compound 34, diyne-girder stapled T-STAR peptide, C16 bridge, RR]”: 33%.
“FTU-Ahx-AKS8YAR(Nle)GRR8LKEIAK-NH2 (sidechain bridge or staple) [compound 36, diyne-girder stapled T-STAR peptide, C16 bridge, SR]”: the “percentage helicity (in words)” value in data set [1] is “high”.
Still for that read-out and setting: the same measure for “FTU-Ahx-AKR8YAR(Nle)GRS8LKEIAK-NH2 (sidechain bridge or staple) [compound 35, diyne-girder stapled T-STAR peptide, C16 bridge, RS]”: “high”.
For `C#CCCCCCC[C@@](C)(NC(=O)[C@H](CCCCNC(=O)OC(C)(C)C)NC(=O)[C@H](C)NC(=O)CCCCCNC(=O)OCC1c2ccccc2-c2ccccc21)C(=O)N[C@@H](Cc1ccc(OC(C)(C)C)cc1)C(=O)N[C@@H](C)C(=O)N[C@@H](CCCNC(=N)NS(=O)(=O)c1c(C)c(C)c2c(c1C)CC(C)(C)O2)C(=O)N[C@@H](CCCC)C(=O)NCC(=O)N[C@@H](CCCNC(=N)NS(=O)(=O)c1c(C)c(C)c2c(c1C)CC(C)(C)O2)C(=O)N[C@@](C)(CCCCCCC#C)C(=O)N[C@@H](CC(C)C)C(=O)N[C@@H](CCCCNC(=O)OC(C)(C)C)C(=O)N[C@@H](CCC(=O)OC(C)(C)C)C(=O)N[C@H](C(=O)N[C@@H](C)C(=O)N[C@@H](CCCCNC(=O)OC(C)(C)C)C(N)=O)[C@@H](C)CC`, the ring closure, conversion by HPLC in data set [2] (38-membered ring) is 100%.
On the same count and under the same terms, the same measure for `C#CCCCCCC[C@@](C)(NC(=O)[C@H](CCCNC(=N)NS(=O)(=O)c1c(C)c(C)c2c(c1C)CC(C)(C)O2)NC(=O)CNC(=O)[C@H](CCCC)NC(=O)[C@H](CCCNC(=N)NS(=O)(=O)c1c(C)c(C)c2c(c1C)CC(C)(C)O2)NC(=O)[C@H](C)NC(=O)[C@H](Cc1ccc(OC(C)(C)C)cc1)NC(=O)[C@](C)(CCCCCCC#C)NC(=O)[C@H](CCCCNC(=O)OC(C)(C)C)NC(=O)[C@H](C)NC(=O)CCCCCNC(=O)OCC1c2ccccc2-c2ccccc21)C(=O)N[C@@H](CC(C)C)C(=O)N[C@@H](CCCCNC(=O)OC(C)(C)C)C(=O)N[C@@H](CCC(=O)OC(C)(C)C)C(=O)N[C@H](C(=O)N[C@@H](C)C(=O)N[C@@H](CCCCNC(=O)OC(C)(C)C)C(N)=O)[C@@H](C)CC`: 68%.
Take `C#CCCCCCC[C@](C)(NC(=O)[C@H](CCCCNC(=O)OC(C)(C)C)NC(=O)[C@H](C)NC(=O)CCCCCNC(=O)OCC1c2ccccc2-c2ccccc21)C(=O)N[C@@H](Cc1ccc(OC(C)(C)C)cc1)C(=O)N[C@@H](C)C(=O)N[C@@H](CCCNC(=N)NS(=O)(=O)c1c(C)c(C)c2c(c1C)CC(C)(C)O2)C(=O)N[C@@H](CCCC)C(=O)NCC(=O)N[C@@H](CCCNC(=N)NS(=O)(=O)c1c(C)c(C)c2c(c1C)CC(C)(C)O2)C(=O)N[C@@](C)(CCCCCCC#C)C(=O)N[C@@H](CC(C)C)C(=O)N[C@@H](CCCCNC(=O)OC(C)(C)C)C(=O)N[C@@H](CCC(=O)OC(C)(C)C)C(=O)N[C@H](C(=O)N[C@@H](C)C(=O)N[C@@H](CCCCNC(=O)OC(C)(C)C)C(N)=O)[C@@H](C)CC`: the ring closure, conversion by HPLC in data set [2] (38-membered ring) is 100%.
On to `CCCC[C@@H]1NC(=O)[C@H](CCCNC(=N)N)NC(=O)[C@H](C)NC(=O)[C@H](Cc2ccc(O)cc2)NC(=O)[C@@H](NC(=O)[C@H](CCCCN)NC(=O)[C@H](C)NC(=O)CCCCCNC(=S)Nc2ccc3c(c2)C(=O)OC32c3ccc(O)cc3Oc3cc(O)ccc32)CCCCCC#CC#CCCCCC[C@@H](C(=O)N[C@@H](CC(C)C)C(=O)N[C@@H](CCCCN)C(=O)N[C@@H](CCC(=O)O)C(=O)N[C@H](C(=O)N[C@@H](C)C(=O)N[C@@H](CCCCN)C(N)=O)[C@@H](C)CC)NC(=O)[C@H](CCCNC(=N)N)NC(=O)CNC1=O`, for which the % peptide remaining after 4 h with chymotrypsin is greater than 92%.
Regarding “FTU-Ahx-AKS7YAR(Nle)GRR7LKEIAK-NH2 (sidechain bridge or staple) [compound 32, diyne-girder stapled T-STAR peptide, C14 bridge, SR]”, the “percentage helicity at 222 nm from mean residue ellipticity” value in data set [1] amounted to 54%.
Turning to “FTU-Ahx-AKS8YAR(Nle)GRS8LKEIAK-NH2 (sidechain bridge or staple) [compound 33, diyne-girder stapled T-STAR peptide, C16 bridge, SS]”, the “percentage helicity (in words)” value in data set [1] was “high”.
Compound `C#CCCCCCC[C@@](C)(NC(=O)[C@H](CCCCNC(=O)OC(C)(C)C)NC(=O)[C@H](C)NC(=O)CCCCCNC(=O)OCC1c2ccccc2-c2ccccc21)C(=O)N[C@@H](Cc1ccc(OC(C)(C)C)cc1)C(=O)N[C@@H](C)C(=O)N[C@@H](CCCNC(=N)NS(=O)(=O)c1c(C)c(C)c2c(c1C)CC(C)(C)O2)C(=O)N[C@@H](CCCC)C(=O)NCC(=O)N[C@@H](CCCNC(=N)NS(=O)(=O)c1c(C)c(C)c2c(c1C)CC(C)(C)O2)C(=O)N[C@](C)(CCCCCCC#C)C(=O)N[C@@H](CC(C)C)C(=O)N[C@@H](CCCCNC(=O)OC(C)(C)C)C(=O)N[C@@H](CCC(=O)OC(C)(C)C)C(=O)N[C@H](C(=O)N[C@@H](C)C(=O)N[C@@H](CCCCNC(=O)OC(C)(C)C)C(N)=O)[C@@H](C)CC` returned a ring closure, conversion by HPLC in data set [2] (38-membered ring) of 93%.
For the compound `C#CCCCCC[C@H](NC(=O)[C@H](CCCNC(=N)NS(=O)(=O)c1c(C)c(C)c2c(c1C)CC(C)(C)O2)NC(=O)CNC(=O)[C@H](CCCC)NC(=O)[C@H](CCCNC(=N)NS(=O)(=O)c1c(C)c(C)c2c(c1C)CC(C)(C)O2)NC(=O)[C@H](C)NC(=O)[C@H](Cc1ccc(OC(C)(C)C)cc1)NC(=O)[C@H](CCCCCC#C)NC(=O)[C@H](CCCCNC(=O)OC(C)(C)C)NC(=O)[C@H](C)NC(=O)CCCCCNC(=O)OCC1c2ccccc2-c2ccccc21)C(=O)N[C@@H](CC(C)C)C(=O)N[C@@H](CCCCNC(=O)OC(C)(C)C)C(=O)N[C@@H](CCC(=O)OC(C)(C)C)C(=O)N[C@H](C(=O)N[C@@H](C)C(=O)N[C@@H](CCCCNC(=O)OC(C)(C)C)C(N)=O)[C@@H](C)CC`, the ring closure, conversion by HPLC in data set [2] (36-membered ring) is 38%.
Take `C#CCCC[C@](C)(NC(=O)[C@H](CCCCNC(=O)OC(C)(C)C)NC(=O)[C@H](C)NC(=O)CCCCCNC(=O)OCC1c2ccccc2-c2ccccc21)C(=O)N[C@@H](Cc1ccc(OC(C)(C)C)cc1)C(=O)N[C@@H](C)C(=O)N[C@@H](CCCNC(=N)NS(=O)(=O)c1c(C)c(C)c2c(c1C)CC(C)(C)O2)C(=O)N[C@@H](CCCC)C(=O)NCC(=O)N[C@@H](CCCNC(=N)NS(=O)(=O)c1c(C)c(C)c2c(c1C)CC(C)(C)O2)C(=O)N[C@@](C)(CCCC#C)C(=O)N[C@@H](CC(C)C)C(=O)N[C@@H](CCCCNC(=O)OC(C)(C)C)C(=O)N[C@@H](CCC(=O)OC(C)(C)C)C(=O)N[C@H](C(=O)N[C@@H](C)C(=O)N[C@@H](CCCCNC(=O)OC(C)(C)C)C(N)=O)[C@@H](C)CC`: in data set [2] (32-membered ring), the ring closure, conversion by HPLC is 52%.
